Assays:
iPS cells = test: Measurement of intracellular ROS (DCFH-DA staining, flow cytometer); format: cell-based, human; conditions: versus medium with no additive (100%)
Procedure: In each of the basal medium with no additive and the albumin-added medium, cells were dispersed into single-cells, and after 1 hours, for each case, cells were fluorescently stained with DCFH-DA, and fluorescence intensity was measured using a flow cytometer.
Cells were cultured in the control media or in the medium to which the respective component had been added, then dispersed into single-cells. For each case, cells were fluorescently stained with DCFH-DA, and the fluorescence intensity was measured using a flow cytometer.

[1] = tested on: Human iPS cell line 253G1; test: Confirmation of cell morphology by phase-contrast microscopy; format: cell-based; conditions: third day of culturing; additive in basal medium (albumin 1 g/100 mL; NAC 8.2 mg/100 mL); spindle = good condition, globular = bad
Procedure: (§1) Human iPS cell line 253G1 was washed with PBS, then treated with an equivalent mixture solution of TrypLE Select (ThermoScientific) and 0.5 mM EDTA at 37° C. for 5 minutes to be dispersed into single-cells, and collected.
The morphology of cells on the third day of culturing in the basal medium with no additive and in the albumin-added medium was observed by phase-contrast microscopy.
The morphology of cells on the third day of culturing in the control medium and in the N-acetyl-L-cysteine-added medium as a representative of 5 types of antioxidants was observed by phase-contrast microscopy.

[2] = tested on: Human iPS cell line 253G1; test: Comparison of proliferating rate in media with each added component; format: cell-based; conditions: 7 days culture; NAC 8.2 mg and/or PVA 0.25 g per 100 mL basal medium; basal medium only = 1; n=3
Procedure: To 100 mL of the basal medium, either only 8.2 mg of N-acetyl-L-cysteine was added, only 0.25 g of polyvinyl alcohol was added, or 8.2 mg of N-acetyl-L-cysteine and 0.25 g of polyvinyl alcohol were added.
as §1
The culture was carried out in the basal medium with no additive prepared as a control, and in a medium to which only N-acetyl-L-cysteine was added, in a medium to which only polyvinyl alcohol was added, or in a medium to which N-acetyl-L-cysteine and polyvinyl alcohol were added (n=3).

[3] = tested on: Human iPS cell line 253G1; test: Confirming cell attachment (crystal violet staining); format: cell-based; conditions: 7 days culture; 0.25 g polymer or 1 g albumin per 100 mL basal medium; iMatrix-511 coated 6-well plate; n=3
Procedure: as §1
The culture was carried out in the basal medium with no additive and an albumin-added medium prepared as controls, and in a medium to which polyvinyl alcohol and in a medium to which polyvinylpyrrolidone was added (n=3).
Each of the cultured cell was stained with crystal violet and the adherence of the cells was confirmed under phase-contrast microscopy.

[4] = Example 1, antioxidant added to 100 mL basal medium (NAC 163 mg, GSH 307 mg)

| Molecule | decrease in intracellular ROS level (iPS cells; [4]) | cell morphology [1] | increase in relative proliferating rate [2] | decrease in intracellular ROS level (iPS cells; Comparative Example 1, 1 g albumin per 100 mL basal medium, 1 hour after dispersion into single cells) | adherence of cells to culture container [3] |
| --- | --- | --- | --- | --- | --- |
| CC(=O)N[C@@H](CS)C(=O)O [N-acetyl-L-cysteine] | approximately 50% | spindle shape | approximately 1.4 fold |  |  |
| N[C@@H](CCC(=O)N[C@@H](CS)C(=O)NCC(=O)O)C(=O)O [reduced glutathione] | approximately 50% |  |  |  |  |
| albumin |  | spindle shape |  | approximately 60% | stained cells were confirmed all over the culture container |

— patent US20220017871A1, “UNDIFFERENTIATED STATE-MAINTAINING CULTURE MEDIUM FOR PLURIPOTENT STEM CELLS” (Kanto Kagaku Kabushiki Kaisha, priority 2018, published 2022)
